Laboratory results published in US20250099596A1, “TETRAHYDRONAPHTHALENE COMPOUND, AND PREPARATION METHOD THEREFOR AND USE THEREOF IN MEDICINE” (Jiangsu Hengrui Pharmaceuticals Co., Ltd., priority 2021, published 2025).

Columns and labels:
MCF7 cells = assay: Inhibitory effects on MCF7 cell proliferation (CellTiter-Glo); type: cell-based; conditions: Homo sapiens, 144 h, 6 days incubation, read-out: IC50 (nM), inhibition of MCF7 cell proliferation
Method: (§1) MCF7 cells (TCHu74, National Collection of Authenticated Cell Cultures) were cultured in an MEM (GE Healthcare, SH30024.01) complete medium containing 10% fetal bovine serum. On day 1 of the experiment, MCF7 cells were seeded into a 96-well plate at a density of 3,000 cells/well using MEM containing 2% fetal bovine serum, with each well containing 135 μL of cell suspension. The plate was incubated in a 37° C., 5% CO2 cell incubator overnight. The next day, different concentrations of test compounds prepared in media were added at 15 μL/well. The final concentrations of the compounds were 9 concentration points obtained by 4-fold serial dilution from 1000 nM. A blank control containing 0.5% DMSO was set up. The plate was incubated in a 37° C., 5% CO2 cell incubator for 6 days. On day 8, the 96-well cell culture plate was taken out, and CellTiter-Glo® Luminescent Cell Viability Assay (Promega, G7573) was added at 75 μL/well. After the plate was left at room temperature for 10 min, luminescence signal readings were taken on a multilabel microplate reader (PerkinElmer, VICTOR 3). The IC50 values for the inhibitory activity of the compounds were calculated from the concentrations of the compounds and the luminescence signal readings using Graphpad Prism software.

MCF7/ERα Y537S cells = assay: Inhibitory activity on proliferation of ERα mutant-expressing MCF7 cells; type: cell-based; conditions: Homo sapiens, 144 h, 6 days incubation, CellTiter-Glo, read-out: IC50 (nM), inhibition of proliferation of ERα mutant-expressing MCF7 cells
Method: The objective of this experiment was to determine the inhibitory activity of the compounds of the present disclosure on the proliferation of ERα mutant-expressing MCF7 cells.
as §1, with “cells expressing the ERα Y537S mutant were constructed by lentiviral infection. MCF7/ERα Y537S cells” for “cells (TCHu74, National Collection of Authenticated Cell Cultures)”, “bovine serum and […] puromycin.” for “bovine serum.”, “experiment,” for “experiment, MCF7”, “135 µL” for “135 μL”, “75 µL/well.” for “75 μL/well.”

| SMILES | IC50 (MCF7 cells) | IC50 (MCF7/ERα Y537S cells) |
| --- | --- | --- |
| CC(C)C[C@H]1CCc2cc(O)ccc2[C@H]1c1ccc(N2CCC(CN3CCN(c4ccc5c(c4)CN(C4CCC(=O)NC4=O)C5=O)CC3)CC2)cc1 (mixture of isomers) [Example 41, 3-(5-(4-((1-(4-((1R,2R)-6-Hydroxy-2-isobutyl-1,2,3,4-tetrahydronaphthalen-1-yl)phenyl)piperidin-4-yl)methyl)piperazin-1-yl)-1-oxoisoindolin-2-yl)piperidine-2,6-dione] | 0.62 nM | 2.89 nM |
| CCC[C@H]1CCc2cc(O)ccc2[C@H]1c1ccc(N2CCC(CN3CCN(c4ccc5c(c4)CN([C@H]4CCC(=O)NC4=O)C5=O)CC3)CC2)cc1 [Example 29, (S)-3-(5-(4-((1-(4-((1R,2S)-6-Hydroxy-2-propyl-1,2,3,4-tetrahydronaphthalen-1-yl)phenyl)piperidin-4-yl)methyl)piperazin-1-yl)-1-oxoisoindolin-2-yl)piperidine-2,6-dione] | 0.78 nM | 3.62 nM |
| CC(C)(C)C[C@H]1CCc2cc(O)ccc2[C@H]1c1ccc(N2CCC(CN3CCN(c4ccc5c(c4)CN([C@H]4CCC(=O)NC4=O)C5=O)CC3)CC2)cc1 [Example 39, (S)-3-(5-(4-((1-(4-((1R,2R)-6-Hydroxy-2-neopentyl-1,2,3,4-tetrahydronaphthalen-1-yl)phenyl)piperidin-4-yl)methyl)piperazin-1-yl)-1-oxoisoindolin-2-yl)piperidine-2,6-dione] | 5.23 nM | 15.8 nM |
| O=C1CCC(N2Cc3cc(N4CCN(CC5CCN(c6ccc([C@@H]7c8ccc(O)cc8CC[C@@H]7C7CCOCC7)cc6F)CC5)CC4)ccc3C2=O)C(=O)N1 (mixture of isomers) [Example 4-1, 3-(5-(4-((1-(2-Fluoro-4-((1R,2R)-6-hydroxy-2-(tetrahydro-2H-pyran-4-yl)-1,2,3,4-tetrahydronaphthalen-1-yl)phenyl)piperidin-4-yl)methyl)piperazin-1-yl)-1-oxoisoindolin-2-yl)piperidine-2,6-dione] | 0.92 nM | 4.71 nM |
| O=C1CCC(N2Cc3cc(N4CCN(CC5CCN(c6ccc(C7c8ccc(O)cc8CCC78CCCC8)cc6)CC5)CC4)ccc3C2=O)C(=O)N1 (centres unmarked) [Example 1, 3-(5-(4-((1-(4-(6′-Hydroxy-3′,4′-dihydro-1′H-spiro[cyclopentane-1,2′-naphthalen]-1′-yl)phenyl)piperidin-4-yl)methyl)piperazin-1-yl)-1-oxoisoindolin-2-yl)piperidine-2,6-dione] | 6.15 nM | 14.9 nM |
| O=C1CC[C@H](N2Cc3cc(N4CCN(CC5CCN(c6ccc([C@@H]7c8ccc(O)cc8CC[C@@H]7C7CCOCC7)cc6F)CC5)CC4)ccc3C2=O)C(=O)N1 [Example 5, (S)-3-(5-(4-((1-(2-Fluoro-4-((1R,2R)-6-hydroxy-2-(tetrahydro-2H-pyran-4-yl)-1,2,3,4-tetrahydronaphthalen-1-yl)phenyl)piperidin-4-yl)methyl)piperazin-1-yl)-1-oxoisoindolin-2-yl)piperidine-2,6-dione] | 0.72 nM | 2.29 nM |
| O=C1CCC(N2Cc3cc(N4CCN(CC5CCN(c6ccc([C@@H]7c8ccc(O)cc8CC[C@@H]7C7CC7)cc6)CC5)CC4)ccc3C2=O)C(=O)N1 (stereo partly drawn) [Example 16, 3-(5-(4-((1-(4-((1,2)-cis-2-Cyclopropyl-6-hydroxy-1,2,3,4-tetrahydronaphthalen-1-yl)phenyl)piperidin-4-yl)methyl)piperazin-1-yl)-1-oxoisoindolin-2-yl)piperidine-2,6-dione] | 4.63 nM | 14.9 nM |
| O=C1CCC(N2Cc3cc(N4CCN(CC5CCN(c6ccc([C@@H]7c8ccc(O)cc8CC[C@@H]7C7CCOCC7)cc6F)CC5)CC4)ccc3C2=O)C(=O)N1 (relative stereo) [Example 3, 3-(5-(4-((1-(2-Fluoro-4-((1,2)-cis-6-hydroxy-2-(tetrahydro-2H-pyran-4-yl)-1,2,3,4-tetrahydronaphthalen-1-yl)phenyl)piperidin-4-yl)methyl)piperazin-1-yl)-1-oxoisoindolin-2-yl)piperidine-2,6-dione] | 1.56 nM | 5.79 nM |
| O=C1CC[C@H](N2Cc3cc(N4CCN(CC5CCN(c6ccc([C@@H]7c8ccc(O)cc8CC[C@@H]7C7CC7)cc6F)CC5)CC4)ccc3C2=O)C(=O)N1 [Example 21, (S)-3-(5-(4-((1-(4-((1R,2R)-2-Cyclopropyl-6-hydroxy-1,2,3,4-tetrahydronaphthalen-1-yl)-2-fluorophenyl)piperidin-4-yl)methyl)piperazin-1-yl)-1-oxoisoindolin-2-yl)piperidine-2,6-dione] | 1.72 nM | 5.66 nM |
| O=C1CCC(N2Cc3nc(N4CCN(CC5CCN(c6ccc([C@@H]7c8ccc(O)cc8CCC78CCCC8)cc6)CC5)CC4)ccc3C2=O)C(=O)N1 (mixture of isomers) [Example 6, 3-(2-(4-((1-(4-((R)-6′-Hydroxy-3′,4′-dihydro-1′H-spiro[cyclopentane-1,2′-naphthalen]-1′-yl)phenyl)piperidin-4-yl)methyl)piperazin-1-yl)-5-oxo-5,7-dihydro-6H-pyrrolo[3,4-b]pyridin-6-yl)piperidine-2,6-dione] | 0.75 nM | 3.19 nM |

Next, values leading:

| IC50 (MCF7 cells) | IC50 (MCF7/ERα Y537S cells) | SMILES |
| --- | --- | --- |
| 14.3 nM | 31.4 nM | O=C1CCC(N2Cc3cc(N4CCN(CC5CCN(c6ccc([C@H]7c8ccc(O)cc8CC[C@H]7C7CCCCC7)cc6)CC5)CC4)ccc3C2=O)C(=O)N1 (stereo partly drawn) [Example 15-2, 3-(5-(4-((1-(4-((1S,2S)-2-Cyclohexyl-6-hydroxy-1,2,3,4-tetrahydronaphthalen-1-yl)phenyl)piperidin-4-yl)methyl)piperazin-1-yl)-1-oxoisoindolin-2-yl)piperidine-2,6-dione] |
| 0.46 nM | 2.8 nM | O=C1CCC(N2Cc3cc(N4CCN(CC5CCN(c6ccc([C@@H]7c8ccc(O)cc8CC[C@@H]7C7CCOCC7)cc6)CC5)CC4)ccc3C2=O)C(=O)N1 (mixture of isomers) [Example 8-1, 3-(5-(4-((1-(4-((1R,2R)-6-Hydroxy-2-(tetrahydro-2H-pyran-4-yl)-1,2,3,4-tetrahydronaphthalen-1-yl)phenyl)piperidin-4-yl)methyl)piperazin-1-yl)-1-oxoisoindolin-2-yl)piperidine-2,6-dione] |
| 2.46 nM | 12.9 nM | CC1(C)CCc2cc(O)ccc2[C@H]1c1ccc(N2CCC(CN3CCN(c4ccc5c(c4)CN(C4CCC(=O)NC4=O)C5=O)CC3)CC2)cc1 (mixture of isomers) [Example 25-1, 3-(5-(4-((1-(4-((R)-6-Hydroxy-2,2-dimethyl-1,2,3,4-tetrahydronaphthalen-1-yl)phenyl)piperidin-4-yl)methyl)piperazin-1-yl)-1-oxoisoindolin-2-yl)piperidine-2,6-dione] |
| 0.75 nM | 2.45 nM | O=C1CCC(N2Cc3cc(N4CCN(CC5CCN(c6ccc([C@@H]7c8ccc(O)cc8CC[C@@H]7C7CCCC7)cc6)CC5)CC4)ccc3C2=O)C(=O)N1 (mixture of isomers) [Example 14-1, 3-(5-(4-((1-(4-((1R,2R)-2-Cyclopentyl-6-hydroxy-1,2,3,4-tetrahydronaphthalen-1-yl)phenyl)piperidin-4-yl)methyl)piperazin-1-yl)-1-oxoisoindolin-2-yl)piperidine-2,6-dione] |
| 0.83 nM | 4.79 nM | O=C1CC[C@H](N2Cc3cc(N4CCN(CC5CCN(c6ccc([C@@H]7c8ccc(O)cc8CC[C@@H]7C7CCC7)cc6)CC5)CC4)ccc3C2=O)C(=O)N1 [Example 13-1, (S)-3-(5-(4-((1-(4-((1R,2R)-2-Cyclobutyl-6-hydroxy-1,2,3,4-tetrahydronaphthalen-1-yl)phenyl)piperidin-4-yl)methyl)piperazin-1-yl)-1-oxoisoindolin-2-yl)piperidine-2,6-dione] |
| 2.39 nM | 7.53 nM | O=C1CCC(N2Cc3cc(N4CCN(CC5CCN(c6ccc([C@@H]7c8ccc(O)cc8CCC78CCC8)cc6)CC5)CC4)ccc3C2=O)C(=O)N1 (mixture of isomers) [Example 23-1, 3-(5-(4-((1-(4-((R)-6′-Hydroxy-3′,4′-dihydro-1′H-spiro[cyclobutane-1,2′-naphthalen]-1′-yl)phenyl)piperidin-4-yl)methyl)piperazin-1-yl)-1-oxoisoindolin-2-yl)piperidine-2,6-dione] |
